A word on the IC50: it is the concentration that inhibits the measured activity by half.

Activity calls are given as the source filed them.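 The calls were made as follows: active = any compound with an IC50 of 100 nM or lower; inactive = the rest.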

The assay addresses Insulin-degrading enzyme (Homo sapiens) (UniProt P14735). The assay can be described thus: inhibitors of IDE decapeptide proteolysis, dose response, counter-screen for IDE exo-site inhibitor project, biochemical, kinetic mode (AID 1259348).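 As to z-score: purified IDE bound to fluorescein-labelled 6b probe FL-6b at the exo-site; probe displacement lowers polarization so hits show a drop in FP signal.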 The following applies: purified human IDE, fluorogenic decapeptide proteolysis; for z-score: measured here: primary FP probe displacement screen, stronger effect = lower value. On the technique in general: The purpose of a counterscreen is to sort out artefacts and off-target activity.

Chain of Insulin-degrading enzyme (Homo sapiens) (P14735 42-1019 limits assumed): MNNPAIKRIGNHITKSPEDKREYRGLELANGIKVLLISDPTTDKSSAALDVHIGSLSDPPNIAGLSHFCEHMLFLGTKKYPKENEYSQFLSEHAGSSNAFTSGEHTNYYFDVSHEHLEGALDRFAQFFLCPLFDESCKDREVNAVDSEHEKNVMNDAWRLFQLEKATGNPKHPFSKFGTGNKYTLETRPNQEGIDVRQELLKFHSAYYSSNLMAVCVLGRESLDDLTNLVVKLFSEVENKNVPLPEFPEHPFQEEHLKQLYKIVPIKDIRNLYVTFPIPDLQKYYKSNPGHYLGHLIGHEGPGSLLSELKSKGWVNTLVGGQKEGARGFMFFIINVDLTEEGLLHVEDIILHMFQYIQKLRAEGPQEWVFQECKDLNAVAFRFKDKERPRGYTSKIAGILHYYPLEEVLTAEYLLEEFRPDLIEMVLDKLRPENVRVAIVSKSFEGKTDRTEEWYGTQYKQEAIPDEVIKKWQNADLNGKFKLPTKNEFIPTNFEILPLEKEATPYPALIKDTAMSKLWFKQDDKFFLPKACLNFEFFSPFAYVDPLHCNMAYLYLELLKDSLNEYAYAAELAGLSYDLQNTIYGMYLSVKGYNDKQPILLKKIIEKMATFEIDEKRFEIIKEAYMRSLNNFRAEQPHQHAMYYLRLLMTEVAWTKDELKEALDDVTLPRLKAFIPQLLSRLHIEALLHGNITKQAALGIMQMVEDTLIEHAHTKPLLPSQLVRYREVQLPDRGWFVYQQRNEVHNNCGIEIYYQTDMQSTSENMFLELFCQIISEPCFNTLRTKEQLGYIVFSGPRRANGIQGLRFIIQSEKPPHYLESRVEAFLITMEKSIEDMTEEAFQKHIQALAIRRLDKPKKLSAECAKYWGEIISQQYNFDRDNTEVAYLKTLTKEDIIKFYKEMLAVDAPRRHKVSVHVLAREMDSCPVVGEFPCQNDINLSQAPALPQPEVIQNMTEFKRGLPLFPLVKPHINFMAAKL

Consider `Cc1cccc(-c2ccc([C@@H]3[C@@H](CO)N4CCCCN(S(=O)(=O)c5cn(C)cn5)C[C@@H]34)cc2)c1`, for which the IC50 is 0.9 µM and the z-score was -17.5.

Take `Cc1cccc(-c2ccc([C@H]3[C@@H](CO)N4CCCCN(C(=O)c5cccnc5)C[C@H]34)cc2)c1`: the IC50 is 3.4 µM and the z-score is -17.

Turning to `Cc1ccccc1-c1ccc([C@H]2[C@@H](CO)N3CCCCN(S(=O)(=O)c4ccc(F)cc4)C[C@@H]23)cc1`, the IC50 was 85 µM and the z-score turned out to be 3.66.

As for `COc1ccccc1C#Cc1ccc([C@H]2[C@H](CO)N3CCCCN(C(=O)C4CCC4)C[C@@H]23)cc1`, the IC50 was 2.7 µM and the z-score is -12.3.

With `Cc1ccccc1-c1ccc([C@H]2[C@@H](CO)N3CCCCN(S(C)(=O)=O)C[C@@H]23)cc1`, the IC50 is > 100 µM (inactive) and the z-score is -2.31.

Regarding `COc1ccccc1-c1ccc([C@H]2[C@@H](CO)N(C(=O)NC(C)C)[C@H]2C#N)cc1`, the IC50 is 20 µM and the z-score is -16.3.

On to `COc1cccc(C#Cc2ccc([C@@H]3[C@H](CO)N4C(=O)CN(C(C)=O)C[C@@H]34)cc2)c1`, for which the IC50 is 3.7 µM and the z-score is -15.3.

`Cc1ccccc1-c1ccc([C@H]2[C@H](CO)N3C(=O)CN(C(=O)c4ccc(F)cc4)C[C@@H]23)cc1`: the IC50 is 3 µM and the z-score was -16.5.

With `Cc1ccccc1-c1ccc(C2[C@@H]3CN(C(=O)Cc4ccncc4)C[C@H]2N3)cc1` (some centres undefined), the IC50 is 2.2 µM and the z-score was -9.03.

In the case of `O=C(CC1CC1)N1CC(=O)N2[C@H](C1)[C@H](c1ccc(C#Cc3ccccc3)cc1)[C@@H]2CO`, the IC50 is 7.1 µM and the z-score is -15.9.

As to `COc1ccccc1-c1ccc([C@H]2[C@H](C#N)N[C@@H]2CO)cc1`, the IC50 is 6.3 µM and the z-score is -12.

`CCCNC(=O)N1CC(=O)N2[C@@H](CO)[C@@H](c3ccc(C#Cc4cccc(OC)c4)cc3)[C@@H]2C1`: the IC50 is 11 µM and the z-score was -1.33.

As for `Cc1cccc(-c2ccc([C@@H]3[C@H](CO)N4CCCCN(S(=O)(=O)c5ccccc5F)C[C@@H]34)cc2)c1`, the IC50 is 0.55 µM and the z-score is -22.1.

In the case of `Cc1ccccc1-c1ccc([C@@H]2[C@H](CO)N3CCCCN(C(=O)NC4CCCC4)C[C@@H]23)cc1`, the IC50 was 1.55 µM and the z-score is -19.

With `COc1cccc(-c2ccc([C@@H]3[C@@H](CO)N4CCCCN(CC5CC5)C[C@@H]34)cc2)c1`, the IC50 is 22.5 µM and the z-score is -2.88.

Consider `Cc1cccc(-c2ccc([C@@H]3[C@H]4CN(C(=O)c5cccnc5)CC(=O)N4[C@H]3CO)cc2)c1`, for which the IC50 is 4.2 µM and the z-score was -17.7.

As to `Cc1ccccc1-c1ccc([C@H]2[C@@H](CO)N3CCCCN(C(=O)c4cccnc4)C[C@@H]23)cc1`, the IC50 is 12.5 µM and the z-score was -4.79.

For the molecule `Cc1cccc(-c2ccc([C@@H]3[C@@H](CO)N4CCCCN(C(=O)NC(C)C)C[C@@H]34)cc2)c1`, the IC50 was 6.2 µM and the z-score is -5.51.

Turning to `Cc1ccccc1-c1ccc([C@@H]2[C@@H](CO)N3C(=O)CN(C(=O)Cc4ccccn4)C[C@@H]23)cc1`, the IC50 was 2.7 µM and the z-score was -19.9.

For the molecule `Cc1cccc(-c2ccc([C@@H]3[C@H]4CN(C(=O)c5ccncc5)CCCCN4[C@H]3CO)cc2)c1`, the IC50 is 4.9 µM and the z-score is -17.

For the molecule `Cc1cccc(-c2ccc([C@@H]3[C@H](CO)N4CCCCN(S(=O)(=O)c5cn(C)cn5)C[C@@H]34)cc2)c1`, the IC50 is 2.1 µM and the z-score is -19.5.

As to `COc1cccc(-c2ccc([C@@H]3[C@@H](CO)N4CCCCN(C(=O)Cc5ccncc5)C[C@@H]34)cc2)c1`, the IC50 is 14.7 µM and the z-score was -2.33.

Turning to `Cc1ccccc1-c1ccc([C@H]2[C@H](CO)N3C(=O)CN(C(=O)Cc4ccccn4)C[C@@H]23)cc1`, the IC50 was 4.4 µM and the z-score is -13.9.

As for `O=C(NC1CCCC1)N1CC(=O)N2[C@H](CO)[C@@H](c3ccc(-c4cccnc4)cc3)[C@@H]2C1`, the IC50 is 14 µM and the z-score was -12.2.

Turning to `Cc1cccc(-c2ccc([C@@H]3[C@@H](CO)N4CCCCN(S(=O)(=O)c5cccs5)C[C@@H]34)cc2)c1`, the IC50 is 0.8 µM and the z-score was -3.77.

For the molecule `Cc1ccccc1-c1ccc([C@@H]2[C@@H](CO)N3C(=O)CN(S(C)(=O)=O)C[C@@H]23)cc1`, the IC50 was 1.8 µM and the z-score is -12.7.

Consider `CC(C)NC(=O)N1CCCCN2[C@@H](CO)[C@H](c3ccc(C#Cc4ccccc4F)cc3)[C@@H]2C1`, for which the IC50 was 1.2 µM and the z-score is -12.7.

As to `Cc1ccccc1-c1ccc([C@H]2[C@@H](CO)N3CCCCN(C(=O)Nc4ccc(F)cc4)C[C@@H]23)cc1`, the IC50 was 3 µM and the z-score was -1.63.

Regarding `Cc1ccccc1-c1ccc(C2[C@@H]3CN(Cc4cncnc4)C[C@H]2N3)cc1` (some centres undefined), the IC50 is 6.7 µM and the z-score was -2.59.

For the molecule `O=C(c1ccncc1)N1C[C@@H]2N[C@H](C1)C2c1ccc(/C=C/c2ccccc2)cc1` (some centres undefined), the IC50 was 8.8 µM and the z-score was -13.8.

For `O=C(C1CCOCC1)N1CC(=O)N2[C@H](CO)[C@H](c3ccc(C#Cc4cccc(F)c4)cc3)[C@H]2C1`, the IC50 is 5.3 µM and the z-score was -19.3.

For `CN1C(=O)c2cc(NC(=O)Nc3ccccc3Cl)ccc2OC[C@H]2O[C@H](CC(=O)NCCCN3CCOCC3)CC[C@@H]21`, the half-inhibitory concentration (IC50) was 1.7 µM and the z-score was -14.2.

As for `Cc1ccccc1-c1ccc([C@@H]2[C@H]3CN(C(=O)c4ccncc4)CC(=O)N3[C@H]2CO)cc1`, the IC50 is 4.2 µM and the z-score is -13.6.

On to `Cc1ccccc1-c1ccc(C2[C@@H]3CN(C(=O)C4CCOCC4)C[C@H]2N3)cc1` (some centres undefined), for which the IC50 was 2.2 µM and the z-score is -7.71.

With `Cc1ccccc1-c1ccc([C@H]2[C@@H](CO)N3CCCCN(CC4CC4)C[C@@H]23)cc1`, the IC50 is 45 µM and the z-score is -3.48.

With `Cc1ccccc1-c1ccc([C@H]2[C@@H](CO)N3CCCCN(S(=O)(=O)Cc4ccccc4)C[C@@H]23)cc1`, the IC50 is 44 µM and the z-score is -1.65.

`Cc1ccccc1-c1ccc([C@H]2[C@@H](CO)N3CCCCN(C(=O)c4cccnc4)C[C@H]23)cc1`: the IC50 was 3.1 µM and the z-score was -16.5.

Take `Cc1cccc(-c2ccc([C@@H]3[C@@H](CO)N4C(=O)CN(C(=O)NC5CCCCC5)C[C@@H]34)cc2)c1`: the IC50 was 0.67 µM and the z-score was -16.6.

For the molecule `COc1ccccc1-c1ccc([C@H]2[C@@H](CO)N3CCCCN(C(=O)c4ccncc4)C[C@H]23)cc1`, the IC50 is 4.9 µM and the z-score is -17.2.

On to `COc1ccccc1-c1ccc([C@H]2[C@@H](CO)N3CCCCN(C(=O)NC4CCCC4)C[C@H]23)cc1`, for which the IC50 is 2.6 µM and the z-score was -19.1.

On to `CCS(=O)(=O)N1CCCCN2[C@H](CO)[C@@H](c3ccc(-c4ccccc4C)cc3)[C@@H]2C1`, for which the IC50 was 0.41 µM and the z-score is -18.3.

Turning to `Cc1cccc(-c2ccc([C@@H]3[C@@H](CO)N4C(=O)CN(C(=O)Cc5ccccn5)C[C@@H]34)cc2)c1`, the IC50 was 3.3 µM and the z-score was -11.8.

For `COc1ccccc1-c1ccc(C2[C@@H]3CN(C(=O)c4cccnc4)C[C@H]2N3)cc1` (some centres undefined), the IC50 is 7.1 µM and the z-score is -13.8.

For `OC[C@H]1[C@@H](c2ccc(C#Cc3ccccc3F)cc2)[C@@H]2CN(Cc3cncnc3)CCCCN12`, the IC50 was 5.2 µM and the z-score is -15.1.

Regarding `Cc1ccccc1-c1ccc([C@@H]2[C@H]3CN(C(=O)c4cccnc4)CC(=O)N3[C@H]2CO)cc1`, the IC50 was 2.6 µM and the z-score is -19.7.

As to `Cc1ccccc1-c1ccc([C@@H]2[C@H]3CN(C(=O)Cc4ccccn4)CC(=O)N3[C@H]2CO)cc1`, the IC50 was 2 µM and the z-score is -17.7.

On to `CCC(=O)N1[C@H](CO)[C@H](c2ccc(-c3ccccc3OC)cc2)[C@@H]1CNC(C)=O`, for which the IC50 was 5.8 µM and the z-score is -15.

`COc1ccccc1-c1ccc([C@H]2[C@@H](CO)N[C@@H]2CNC(=O)C2CCCC2)cc1`: the IC50 was 5.1 µM and the z-score is -10.9.

Consider `Cc1ccccc1-c1ccc(C2[C@@H]3CN(Cc4cocn4)C[C@H]2N3)cc1` (some centres undefined), for which the IC50 is 6.7 µM and the z-score was -3.01.

On to `COc1ccccc1-c1ccc([C@@H]2[C@@H](C#N)N(C(=O)c3cccnc3)[C@@H]2CO)cc1`, for which the IC50 is 1.2 µM and the z-score was -33.8.

In the case of `Cc1ccccc1-c1ccc([C@H]2[C@@H](CO)N3C(=O)CN(C(=O)Nc4ccc(F)cc4)C[C@H]23)cc1`, the IC50 is 0.47 µM and the z-score was -21.3.

For `Cc1ccccc1-c1ccc([C@H]2[C@@H](CO)N3CCCCN(C(=O)CN4CCOCC4)C[C@@H]23)cc1`, the IC50 is 25 µM and the z-score worked out at 0.13.

For `Cc1cccc(-c2ccc([C@H]3[C@@H](CO)N4CCCCN(C(=O)c5ccncc5)C[C@H]34)cc2)c1`, the IC50 was 3 µM and the z-score is -18.3.

Take `Cc1cccc(-c2ccc([C@@H]3[C@@H](CO)N4CCCCN(S(=O)(=O)c5cccc(C)c5)C[C@@H]34)cc2)c1`: the IC50 is 1 µM and the z-score was -9.77.

With `O=C(NC1CCCC1)N1CCCCN2[C@@H](CO)[C@H](c3ccc(/C=C/c4ccccc4)cc3)[C@@H]2C1`, the IC50 was 0.88 µM and the z-score is -14.8.

Regarding `Cc1ccccc1-c1ccc([C@H]2[C@H](CO)N3C(=O)CN(S(C)(=O)=O)C[C@@H]23)cc1`, the IC50 is 17.5 µM and the z-score is -1.37.

With `Cc1ccccc1-c1ccc(C2[C@@H]3CN(C(=O)C4CCCCC4)C[C@H]2N3)cc1` (some centres undefined), the IC50 was 1.5 µM and the z-score is -13.9.

(Values after PubChem BioAssay AID1259348 (Broad Institute, 2017).)
